Reference: article PMC4502414, “Transforming berberine into its intestine-absorbable form by the gut microbiota” (Scientific Reports, 2015)

How the values were obtained:
nitroreductase = molecular target: T1, nitroreductase (Escherichia coli, UniProt P38489); assay: Nitroreductase-mediated BBR reduction, cell-free incubation; type: biochemical; settings: BBR with nitroreductase, 37 °C
T1 construct: purchased Sigma-Aldrich Co. (Shanghai, China); host or cells: Escherichia coli
Method: BBR was incubated with nitroreductase in intestinal bacteria cultures. The reaction mixture consisted of BBR (50 μg/ml), an NADPH-regenerating system and nitroreductase (5 μg/ml) in a final volume of 1 ml under the protection of N2. After incubation for 0, 2, 4, 6 and 12 h at 37 °C, the reaction was terminated by the addition of 1 ml of ice-cold acetonitrile. The samples were then extracted with 1 ml of ethyl acetate after adding 1 ml of 0.5 M sodium hydroxide solution. The organic phase was evaporated to dryness under a nitrogen flow in a water bath at 40 °C. The residue was dissolved with 200 μl of the mobile phase for further analysis. 2-Iodosobenzoic acid (2-IBA), a specific inhibitor of nitroreductase, was used to verify the role of bacterial nitroreductase.

[1] = Transformation of dhBBR in pooled human intestinal microsomes (HIMs); type: in vitro ADME
Method: The mixture was incubated at 37 °C with exposure to air for 2, 5 and 10 min and was terminated by the addition of 200 μl of ice-cold acetonitrile. Then, 20 μl of the internal standard was added to the mixture, and the mixture was centrifuged at 14,000 g for 5 min. Fifty microliters of the supernatant was injected into the HPLC instrument for analysis. The control samples were incubated under the same conditions but without HIMs.

T1 sequence (P38489 whole entry): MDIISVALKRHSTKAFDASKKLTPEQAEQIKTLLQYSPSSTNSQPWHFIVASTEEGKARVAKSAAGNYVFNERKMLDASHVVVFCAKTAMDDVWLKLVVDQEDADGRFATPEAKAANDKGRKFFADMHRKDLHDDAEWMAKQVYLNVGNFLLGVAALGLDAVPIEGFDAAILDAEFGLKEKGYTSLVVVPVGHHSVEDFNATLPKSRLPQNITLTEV

COc1ccc2c(c1OC)CN1CCc3cc4c(cc3C1=C2)OCO4 [dhBBR, dihydroberberine]
incubation time after which dhBBR became detectable (nitroreductase): 4 h | dhBBR-to-BBR reversion [1]: very rapidly
